In PubChem BioAssay AID2060497 (Molecular Pharmacology Branch, DTP, NCI, 2025):

Tested on: 317291-083-R-J1-PDC complex spheroids, viability
Test: Anticancer human tumor 317291-083-R-J1-PDC patient-derived soft tissue sarcoma cell line growth inhibition [GQUAD]
Details: for IC50: curve of first compound; for viability, T/C: stronger effect = lower value
Procedure, shortened: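 Tumor cells were grown as complex spheroids with HUVEC endothelial cells and mesenchymal stem cells as stroma. G-quadruplex stabilizers were combined with targeted agents over half-log dilutions from near the clinical Cmax, or from 10 microM.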

[1] = second compound 0.0316 µM, first compound 0.0316 µM
[2] = second compound 0.0316 µM, first compound 0.1 µM
[3] = second compound 0.0316 µM, first compound 0.316 µM
[4] = second compound 0.0316 µM, first compound 1 µM
[5] = second compound 0.0316 µM, first compound 3.16 µM
[6] = second compound 0.0316 µM, first compound 10 µM
[7] = second compound 0.1 µM, first compound 0.0316 µM
[8] = second compound 0.1 µM, first compound 0.1 µM
[9] = second compound 0.1 µM, first compound 0.316 µM
[10] = second compound 0.1 µM, first compound 1 µM
[11] = second compound 0.1 µM, first compound 3.16 µM
[12] = second compound 0.1 µM, first compound 10 µM
[13] = second compound 0.316 µM, first compound 0.0316 µM
[14] = second compound 0.316 µM, first compound 0.1 µM
[15] = second compound 0.316 µM, first compound 0.316 µM
[16] = second compound 0.316 µM, first compound 1 µM
[17] = second compound 0.316 µM, first compound 3.16 µM
[18] = second compound 0.316 µM, first compound 10 µM
[19] = second compound 1 µM, first compound 0.0316 µM
[20] = second compound 1 µM, first compound 0.1 µM
[21] = second compound 1 µM, first compound 0.316 µM
[22] = second compound 1 µM, first compound 1 µM
[23] = second compound 1 µM, first compound 3.16 µM
[24] = second compound 1 µM, first compound 10 µM
[25] = second compound 3.16 µM, first compound 0.0316 µM
[26] = second compound 3.16 µM, first compound 0.1 µM
[27] = second compound 3.16 µM, first compound 0.316 µM
[28] = second compound 3.16 µM, first compound 1 µM
[29] = second compound 3.16 µM, first compound 3.16 µM
[30] = second compound 3.16 µM, first compound 10 µM
[31] = second compound 10 µM, first compound 0.0316 µM
[32] = second compound 10 µM, first compound 0.1 µM
[33] = second compound 10 µM, first compound 0.316 µM
[34] = second compound 10 µM, first compound 1 µM
[35] = second compound 10 µM, first compound 3.16 µM
[36] = second compound 10 µM, first compound 10 µM
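Further: spheroids exposed to compounds for one week before readout.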
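Wherever viability, T/C is given: percent viability relative to DMSO vehicle wells taken as 100%.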

Work on `CCCS(=O)(=O)Nc1ccc(F)c(C(=O)c2c[nH]c3ncc(-c4ccc(Cl)cc4)cc23)c1F` + Cc1[nH]c2ccc(F)cc2c1-c1nc2c3cccnc3c3ncccc3c2[nH]1 yielded an IC50 (second compound 0.0316 µM) of 2610 nM, an IC50 (second compound 0.1 µM) of 2610 nM and an IC50 (second compound 0.316 µM) of 1760 nM. For the same molecule, the IC50 (second compound 1 µM) was 343 nM, the IC50 (second compound 3.16 µM) was under 31.6 nM and the IC50 (second compound 10 µM) was under 31.6 nM. It also gave a viability, T/C [1] of 110%, a viability, T/C [2] of 103% and a viability, T/C [3] of 95.6%. It also gave a viability, T/C [4] of 89.2%, a viability, T/C [5] of 41.7% and a viability, T/C [6] of 14.3%. The viability, T/C [7] was 95.5%, the viability, T/C [8] was 88.3% and the viability, T/C [9] was 83.5%. For the same molecule, the viability, T/C [10] was 94.3%, the viability, T/C [11] was 41.9% and the viability, T/C [12] was 14%. It also gave a viability, T/C [13] of 73.5%, a viability, T/C [14] of 72.5% and a viability, T/C [15] of 67.1%. For the same molecule, the viability, T/C [16] was 67.8%, the viability, T/C [17] was 31.7% and the viability, T/C [18] was 10.3%. For the same molecule, the viability, T/C [19] was 62.1%, the viability, T/C [20] was 61% and the viability, T/C [21] was 41.5%. It also gave a viability, T/C [22] of 41.6%, a viability, T/C [23] of 37.7% and a viability, T/C [24] of 11.3%. For the same molecule, the viability, T/C [25] was 46%, the viability, T/C [26] was 26.5% and the viability, T/C [27] was 30.2%. The viability, T/C [28] was 19.9%, the viability, T/C [29] was 15.9% and the viability, T/C [30] was 5.4%. The viability, T/C [31] was 40.7%, the viability, T/C [32] was 47.5% and the viability, T/C [33] was 42.4%. For the same molecule, the viability, T/C [34] was 49.3%, the viability, T/C [35] was 25.3% and the viability, T/C [36] was 6.95%.
`C=CCn1c(=O)c2cnc(Nc3ccc(N4CCN(C)CC4)cc3)nc2n1-c1cccc(C(C)(C)O)n1` + Cc1cnc(CNC(=O)c2c(=O)c3ccc(N4CCCN(C)CC4)nc3n3c2sc2ccccc23)cn1 gave an IC50 (second compound 0.0316 µM) of 171 nM, an IC50 (second compound 0.1 µM) of 64.7 nM and an IC50 (second compound 0.316 µM) of under 31.6 nM. For the same molecule, the IC50 (second compound 1 µM) was under 31.6 nM, the IC50 (second compound 3.16 µM) was under 31.6 nM and the IC50 (second compound 10 µM) was under 31.6 nM. The viability, T/C [1] was 79.7%, the viability, T/C [2] was 65.5% and the viability, T/C [3] was 31.2%. It also gave a viability, T/C [4] of 28.8%, a viability, T/C [5] of 17.8% and a viability, T/C [6] of 17.2%. It also gave a viability, T/C [7] of 57.3%, a viability, T/C [8] of 45.4% and a viability, T/C [9] of 30.3%. For the same molecule, the viability, T/C [10] was 19.9%, the viability, T/C [11] was 14.6% and the viability, T/C [12] was 14.8%. The viability, T/C [13] was 43.2%, the viability, T/C [14] was 27.5% and the viability, T/C [15] was 22.6%. It also gave a viability, T/C [16] of 20.9%, a viability, T/C [17] of 12% and a viability, T/C [18] of 17.6%. The viability, T/C [19] was 27.7%, the viability, T/C [20] was 30.3% and the viability, T/C [21] was 24.6%. It also gave a viability, T/C [22] of 15.1%, a viability, T/C [23] of 8.69% and a viability, T/C [24] of 8.16%. It also gave a viability, T/C [25] of 15.6%, a viability, T/C [26] of 13% and a viability, T/C [27] of 19.1%. For the same molecule, the viability, T/C [28] was 4.5%, the viability, T/C [29] was 4.07% and the viability, T/C [30] was 2.45%. For the same molecule, the viability, T/C [31] was 0.13%, the viability, T/C [32] was 0.27% and the viability, T/C [33] was 0.18%. For the same molecule, the viability, T/C [34] was 1.89%, the viability, T/C [35] was 0.2% and the viability, T/C [36] was 0.61%.
Work on `CC1COCCN1c1cc(C2(S(C)(=N)=O)CC2)nc(-c2ccnc3[nH]ccc23)n1` (stereo unspecified) + Cc1[nH]c2ccc(F)cc2c1-c1nc2c3cccnc3c3ncccc3c2[nH]1 yielded an IC50 (second compound 0.0316 µM) of 1530 nM, an IC50 (second compound 0.1 µM) of 1320 nM and an IC50 (second compound 0.316 µM) of 1350 nM. It also gave an IC50 (second compound 1 µM) of 1210 nM, an IC50 (second compound 3.16 µM) of 792 nM and an IC50 (second compound 10 µM) of 613 nM. For the same molecule, the viability, T/C [1] was 109%, the viability, T/C [2] was 112% and the viability, T/C [3] was 90.5%. The viability, T/C [4] was 64%, the viability, T/C [5] was 27.9% and the viability, T/C [6] was 15.4%. For the same molecule, the viability, T/C [7] was 93.3%, the viability, T/C [8] was 93.9% and the viability, T/C [9] was 85.8%. For the same molecule, the viability, T/C [10] was 57.7%, the viability, T/C [11] was 25.2% and the viability, T/C [12] was 13.2%. The viability, T/C [13] was 91.5%, the viability, T/C [14] was 98.6% and the viability, T/C [15] was 88.7%. For the same molecule, the viability, T/C [16] was 59%, the viability, T/C [17] was 24.3% and the viability, T/C [18] was 14.7%. It also gave a viability, T/C [19] of 101%, a viability, T/C [20] of 97.5% and a viability, T/C [21] of 97.3%. It also gave a viability, T/C [22] of 54.8%, a viability, T/C [23] of 22.1% and a viability, T/C [24] of 11.3%. For the same molecule, the viability, T/C [25] was 84%, the viability, T/C [26] was 82.8% and the viability, T/C [27] was 78%. For the same molecule, the viability, T/C [28] was 42.5%, the viability, T/C [29] was 17.7% and the viability, T/C [30] was 11%. It also gave a viability, T/C [31] of 53%, a viability, T/C [32] of 61.5% and a viability, T/C [33] of 86.4%. For the same molecule, the viability, T/C [34] was 37.4%, the viability, T/C [35] was 16.8% and the viability, T/C [36] was 8.56%.
